Measurements as given in publication PMC12514841 (Protein Science : A Publication of the Protein Society, 2025).
Several values for one entry are separate records, joined by “and”; a condition that tells them apart may be missing. Equal values may be shown once.

Assays:
Format in all cases: biochemical
BlaC S130G = BlaC S130G (Mycobacterium tuberculosis, UniProt P9WKD3, S142G)
BlaC G132N = BlaC G132N (Mycobacterium tuberculosis, UniProt P9WKD3, G132N/G144N)
BlaC I105G-G132N [1] = biological target: T1, BlaC I105G-G132N (Mycobacterium tuberculosis, UniProt P9WKD3, G144N/I117G)
BlaC I105Y-S130G [2] = biological target: T2, BlaC I105Y-S130G (Mycobacterium tuberculosis, UniProt P9WKD3, I117Y/S142G); conditions: pH 6.4
BlaC I105Y = BlaC I105Y (Mycobacterium tuberculosis, UniProt P9WKD3, I117Y); conditions: pH 6.4
BlaC I105G = BlaC I105G (Mycobacterium tuberculosis, UniProt P9WKD3, I117G); conditions: pH 6.4
BlaC I105G-G132N [3] = biological target: T1, BlaC I105G-G132N; remark: listed apart in the source
BlaC I105Y-S130G [4] = biological target: T2, BlaC I105Y-S130G

## CC1(C)S[C@@H]2[C@H](NC(=O)[C@H](N)c3ccccc3)C(=O)N2[C@H]1C(=O)O [Ampicillin, ampicillin]
BlaC S130G
  fold decrease in k cat/K M ^app compared to the wild-type: approximately 30 fold
  fold higher activity in MES than in phosphate buffer: roughly 5 fold
  k cat fold lower than for wild-type BlaC: 8 fold
  k cat times higher than for wild-type BlaC: 2.5 times
BlaC S130G; pH 6.4
  KMapp: 588 µM
  k cat: 1.7 ± 1 and 1.7 ± 1 s^−1
  k cat /K M ^app relative to the wild-type: 0.03 ± 0.01
  k cat/K M ^app: 0.007 ± 0.001 and 0.007 ± 0.001 μM^−1 s^−1
  kcat: 21 ± 1 s⁻¹
  kcat/KMapp: 35000 ± 1000 M⁻¹ s⁻¹
  kcat/KMapp relative to the wild-type: 0.165 ± 0.005
BlaC G132N; pH 6.4
  KMapp: 282 ± 9 µM
  k cat: 33 ± 12 and 33 ± 12 s^−1
  k cat /K M ^app relative to the wild-type: 0.10 ± 0.05
  k cat/K M ^app: 0.02 ± 0.01 and 0.02 ± 0.01 μM^−1 s^−1
  kcat: 61 ± 1 s⁻¹
  kcat/KMapp: 220000 ± 10000 M⁻¹ s⁻¹
  kcat/KMapp relative to the wild-type: 1.04 ± 0.05
BlaC I105G-G132N [1]
  factor by which the magnitude of positive epistasis diminished in MES buffer: 7.4
BlaC I105G-G132N [1]; pH 6.4
  KMapp: 183 ± 21 µM
  k cat: 18 ± 1 and 18 ± 1 s^−1
  k cat /K M ^app relative to the wild-type: 0.95 ± 0.05
  k cat/K M ^app: 0.20 ± 0.01 and 0.20 ± 0.01 μM^−1 s^−1
  kcat: 54 ± 2 s⁻¹
  kcat/KMapp: 300000 ± 40000 M⁻¹ s⁻¹
  kcat/KMapp relative to the wild-type: 1.42 ± 0.05
BlaC I105Y-S130G [2]
  KMapp: 813 ± 132 µM
  k cat: 17 ± 1 and 17 ± 1 s^−1
  k cat /K M ^app relative to the wild-type: 0.270 ± 0.005
  k cat/K M ^app: 0.057 ± 0.001 and 0.057 ± 0.001 μM^−1 s^−1
  kcat: 23 ± 3 s⁻¹
  kcat/KMapp: 29000 ± 6000 M⁻¹ s⁻¹
  kcat/KMapp relative to the wild-type: 0.14 ± 0.03
BlaC I105Y
  KMapp: 89 ± 7 µM
  k cat: 48 ± 1 and 48 ± 1 s^−1
  k cat /K M ^app relative to the wild-type: 4.43 ± 0.1
  k cat/K M ^app: 0.98 ± 0.02 and 0.98 ± 0.02 μM^−1 s^−1
  kcat: 28 ± 1 s⁻¹
  kcat/KMapp: 320000 ± 30000 M⁻¹ s⁻¹
  kcat/KMapp relative to the wild-type: 1.52 ± 0.14
BlaC I105G
  KMapp: 31 ± 6 µM
  k cat: 3.95 ± 0.04 and 3.95 ± 0.04 s^−1
  k cat /K M ^app relative to the wild-type: 1.00 ± 0.05
  k cat/K M ^app: 0.21 ± 0.01 and 0.21 ± 0.01 μM^−1 s^−1
  kcat: 6.0 ± 0.4 s⁻¹
  kcat/KMapp: 210000 ± 40000 M⁻¹ s⁻¹
  kcat/KMapp relative to the wild-type: 1.00 ± 0.19

## CC1(C)S[C@@H]2[C@H](NC(=O)C(C(=O)O)c3ccccc3)C(=O)N2[C@H]1C(=O)O (stereo partly shown) [Carbenicillin, carbenicillin]
BlaC S130G; pH 6.4
  K M ^app: 72 ± 5 µM
  k cat: 1.2 ± 0.1 s⁻¹
  k cat /K M ^app relative to the wild-type: 0.22 ± 0.01
  k cat/K M ^app: 0.020 ± 0.001 µM⁻¹ s⁻¹
BlaC G132N
  times decrease in catalytic efficiency (k cat/K M ^app) versus the wild-type: 13 times
BlaC G132N; pH 6.4
  K M ^app: 224 ± 11 µM
  k cat: 1.62 ± 0.02 s⁻¹
  k cat /K M ^app relative to the wild-type: 0.080 ± 0.004
  k cat/K M ^app: 0.0072 ± 0.0004 µM⁻¹ s⁻¹
BlaC I105G-G132N [1]; pH 6.4
  K M ^app: 7.0 ± 0.9 µM
  k cat: 0.96 ± 0.07 s⁻¹
  k cat /K M ^app relative to the wild-type: 1.6 ± 0.2
  k cat/K M ^app: 0.14 ± 0.02 µM⁻¹ s⁻¹
BlaC I105Y-S130G [2]
  K M ^app: 21 ± 3 µM
  k cat: 2.7 ± 0.2 s⁻¹
  k cat /K M ^app relative to the wild-type: 1.4 ± 0.2
  k cat/K M ^app: 0.13 ± 0.02 µM⁻¹ s⁻¹
BlaC I105Y
  K M ^app: 1.5 ± 1 µM
  k cat: 2.0 ± 0.1 s⁻¹
  k cat /K M ^app relative to the wild-type: 14.9 ± 0.8
  k cat/K M ^app: 1.34 ± 0.07 µM⁻¹ s⁻¹
BlaC I105G
  K M ^app: 1.5 ± 0.4 µM
  k cat: 0.12 ± 0.01 s⁻¹
  k cat /K M ^app relative to the wild-type: 0.90 ± 0.04
  k cat/K M ^app: 0.081 ± 0.004 µM⁻¹ s⁻¹

## O=C(O)[C@H]1/C(=C/CO)O[C@@H]2CC(=O)N21 [Clavulanic acid, clavulanic acid]
BlaC I105G-G132N [3]
  course of residual activity during incubation: initially a slight drop in activity, followed by a swift recovery
BlaC I105Y-S130G [4]
  incubation time after which the enzyme is fully inhibited: 2 h
  state of the enzyme after 24 h of incubation: stays fully inhibited
BlaC I105Y-S130G [4]; read-out: recovery of activity, of the control activity
  activity: 63%

## O=C(Cc1cccs1)N[C@@H]1C(=O)N2C(C(=O)O)=C(/C=C/c3ccc([N+](=O)[O-])cc3[N+](=O)[O-])CS[C@H]12 [Nitrocefin, nitrocefin]
BlaC S130G
  fold decrease in k cat/K M ^app compared to the wild-type: approximately 30 fold
BlaC S130G; pH 6.4
  K M ^app: 358 ± 4 µM
  k cat: 5 ± 1 s⁻¹
  k cat /K M ^app relative to the wild-type: 0.03 ± 0.01
  k cat/K M ^app: 0.014 ± 0.003 µM⁻¹ s⁻¹
BlaC G132N; pH 6.4
  K M ^app: 210 ± 30 µM
  k cat: 18 ± 2 s⁻¹
  k cat /K M ^app relative to the wild-type: 0.16 ± 0.04
  k cat/K M ^app: 0.08 ± 0.02 µM⁻¹ s⁻¹
BlaC I105G-G132N [1]; pH 6.4
  K M ^app: 115 ± 1 µM
  k cat: 41 ± 1 s⁻¹
  k cat /K M ^app relative to the wild-type: 0.71 ± 0.01
  k cat/K M ^app: 0.357 ± 0.005 µM⁻¹ s⁻¹
BlaC I105Y-S130G [2]
  k cat: 21 ± 7 and 21 ± 7 s^−1
  k cat /K M ^app relative to the wild-type: 0.08 ± 0.04
  kcat: 13 ± 4 s⁻¹ and 13 ± 1 s⁻¹
BlaC I105Y
  K M ^app: 18 ± 1 µM
  k cat: 39 ± 10 s⁻¹
  k cat /K M ^app relative to the wild-type: 4.2 ± 0.2
  k cat/K M ^app: 2.1 ± 0.1 µM⁻¹ s⁻¹
BlaC I105G
  K M ^app: 240 ± 40 µM
  k cat: 79 ± 5 s⁻¹
  k cat /K M ^app relative to the wild-type: 0.68 ± 0.04
  k cat/K M ^app: 0.34 ± 0.02 µM⁻¹ s⁻¹
